Data from patent publication US20180280429A1, “APPLICATION OF NITRATE IN PREPARATION OF DRUG PREVENTING OR TREATING BONE METABOLIC DISEASES” (Capital Medical University, priority 2015, published 2018).

Tests used:
[1] = test system: BMMSCs of ovariectomized rats; assay: BMMSC osteogenic differentiation, alizarin red staining (cells cultured from treated rats); assay type: cell-based, SD rats; conditions: BMMSC from OVX rats given drinking water with nitrate, after 21 days of osteogenesis induction, vs OVX group, *P<0.05
Description: (§1) 12-week-old female SD rats were selected for the osteoporosis model and bilateral ovaries of them were removed. The experiment objects were divided into 3 groups: the sham operation group (Sham), the ovariectomized group (OVX) and the nitrate group (Nitrate), and there were 10 rats in each group. In the nitrate group, drinking water with sodium nitrate was given on the second day after ovariectomy (ovarianectomy) at a concentration of 2.5 mmol/L, and the daily intake of nitrate in each rat was about 0.5 mmol/Kg bw, the water with nitrate was given for 12 weeks, while normal drinking water was given in the other groups.
(§2) After necropsy, the skin of the hind limbs was removed. After exposing the femur and tibia, the bone marrow was extracted with a 1 mL syringe to flush out from the stump. Cells were cultured in the α-MEM complete medium (containing 10% of bovine serum), and subcultured after the cells were clonally grown until 80% of the fusion.
Preparation of osteoinductive medium: adding 2 mmol/L glutamine, 100 U/ml penicillin and 100 μg/ml streptomycin, 10 mM β-glycerophosphate sodium, and 10 nM Dexamethasone and 50 mg/L vitamin C to 10% fetal bovine serum α-MEM medium. […]

[2] = test system: regulatory T lymphocytes (Treg); assay: Detection of the peripheral blood regulatory T cell ratio by flow cytometry; assay type: in vivo, SD rats; conditions: OVX rats, drinking water with nitrate, 12 weeks, vs OVX group, *P<0.05
Description: as §1
(1) The Detection of the Peripheral Blood Regulatory T Cell Ratio in the Rats
1) Blood was collected from the abdominal aorta of the rats in each group and the serum was collected.
2) 100 μl 0.1% BSA is added for resuspending, and then Anti-CD4, Anti-CD25 are added for incubating on ice for 30 minutes while avoiding light.
3) The obtained mixture is centrifuged at 1500 rpm for 10 minutes, and then the supernatant is removed and 0.1% BSA is added for resuspending.
4) The membrane-permeation solution is added on 4° C., 10 minutes.
5) The obtained mixture is centrifuged at 1500 rpm for 10 minutes, and then the supernatant is removed and 0.1% BSA is added for resuspending.
6) Anti-Foxp3 is added for incubating on ice for 30 minutes while avoiding light. […]

ovariectomized rats [3] = assay: Tibia weight, body weight and adverse reactions in ovariectomized rats; assay type: in vivo, SD rats; conditions: OVX rats
Description: as §1

ovariectomized rats [4] = assay: Bone density detection by Micro-CT of the upper tibia in the ovariectomized rat osteoporosis model; assay type: in vivo, SD rats; conditions: OVX rats, 12 weeks, vs OVX group
[5] = test system: BMMSCs of ovariectomized rats; assay: BMMSC proliferation by the CCK8 method (cells cultured from treated rats); assay type: cell-based, SD rats; conditions: third generation cells from OVX rats given drinking water with nitrate, vs OVX group, *P<0.05
Description: as §1, §2
100 μl of cell suspension was inoculated in the 96-well plate, and the plate was pre-cultured in the incubator for 24 hours (under the condition of 37° C., 5% CO2). Then the plate was incubated in an incubator for 72 hours. 100 μl of culture medium was added to each well and 10 μl of CCK-8 solution was added to each hole. After 2 hours, the absorbance at 450 nm was measured with an enzyme labeled instrument.

TGF-β1, IFN-γ and IL-17 = assay: Detection of TGF-β1, IFN-γ and IL-17 in serum; assay type: in vivo, SD rats; conditions: OVX rats, drinking water with nitrate, 12 weeks, vs OVX group, *P<0.05
Description: as §1
(2) Detection of TGF-β1, IFN-γ and IL-17
1) The serum is diluted for 10 times, and 0.1 ml of which is placed into the 96-well plate of the kit. At the same time, the standard in the kit is taken and diluted in proportion, and then placed into the 96-well plate and incubated at 37° C./at room temperature for 30 minutes/1 hour according to the instructions. The obtained object is washed with a buffer for 3 times and each time lasts for 3 minutes.
2) 100 μl enzyme-labeled antibody is added for incubating for 15 minutes/30 minutes at 37° C./at room temperature. The obtained object is washed for 3 times and each time lasts for 3 minutes.
3) 100 μl substrate solution is added and then incubated for 15 minutes at room temperature/37° C.
4) 100 μl stop solution is added to stop the reaction for 5 minutes.
5) The readings of the enzyme labeled instrument at 450 nm is obtained.

[6] = Measurement of nitrate and nitrite in serum (Griess); assay type: in vivo, SD rats; conditions: after drinking water containing nitrate for 3 months, *p<0.05
Description: as §1
(1) Preparation of the standard: the double dilution of the original standard was 200 μM-3.125 μM
(2) Determination of Nitrite Concentration:
1) Adding 50 μl reaction buffer to blank holes;
2) Adding 50 μl sample or standard to reaction buffer;
3) Adding 50 μl of reaction buffer to each hole in sequence;
4) Adding 50 μl of Griess Reagent I in each hole in sequence;
5) Adding 50 μl of Griess Reagent II to each hole and incubating at room temperature for 10 minutes;
6) Reading the OD value at 540 nm with a microplate reader and the value at 690 nm is used as calibration.
(3) Determination of Nitrate Concentration: […]
7) Reading the OD value at 540 nm with a microplate reader and the value at 690 nm is used as calibration.

[7] = sodium nitrate 2.5 mmol/L in drinking water, *P<0.05

O=[N+]([O-])[O-].[Na+] [nitrate, sodium nitrate]
osteogenic differentiation of BMMSCs, alizarin red staining and quantification (FIG. 5B) [1]: significantly enhanced osteogenic differentiation | proportion of regulatory T lymphocytes in peripheral blood CD4 positive cells (FIG. 4A) [2]: reduce the decline | adverse reactions (ovariectomized rats [3]; nitrate in drinking water, at the time of preservation of bone mass): no obvious adverse reactions | body weight (weight gain) (FIG. 2B) (ovariectomized rats [3]; sodium nitrate 2.5 mmol/L in drinking water, 12 weeks): no significant effect on the weight gain | tibia weight (FIG. 2A) (ovariectomized rats [3]; sodium nitrate 2.5 mmol/L in drinking water, 12 weeks, vs OVX group): relieve the decrease of tibia weight | loss of tibial bone mass (MicroCT of the upper tibia, FIG. 1B) (ovariectomized rats [4]; sodium nitrate 2.5 mmol/L in drinking water (about 0.5 mmol/Kg bw daily)): significantly relieved | bone density (BMD), MicroCT quantitative analysis (FIG. 1C) (ovariectomized rats [4]; [7]): partially recover | bone volume fraction (BV/TV), MicroCT quantitative analysis (FIG. 1D) (ovariectomized rats [4]; [7]): partially recover | trabecular number (Tb.N), MicroCT quantitative analysis (FIG. 1F) (ovariectomized rats [4]; [7]): partially recover | trabecular thickness (Tb.Th), MicroCT quantitative analysis (FIG. 1E) (ovariectomized rats [4]; [7]): partially recover | proliferation of BMMSCs, OD450 value by CCK8 (FIG. 5A) [5]: significantly reduced the proliferation | level of IFN-γ in serum (FIG. 4C) (TGF-β1, IFN-γ and IL-17): alleviate the up-regulation | level of IL-17 in serum (FIG. 4D) (TGF-β1, IFN-γ and IL-17): alleviate the up-regulation | level of TGF-β1 in serum (FIG. 4B) (TGF-β1, IFN-γ and IL-17): alleviate the down-regulation | content of nitrate in serum (FIG. 3A) [6]: significantly increased | content of nitrite in serum (FIG. 3B) [6]: significantly increased
